According to patent US8586588B2, “Aryl pyridazinone derivatives and their use as H3 receptor ligands” (Cephalon, Inc., priority 2006, dated 2013):
Structures can show the parent of a compound that is named as a salt.

melting point	SMILES
253 to 254 °C	Cn1ncc(-c2ccc(OCCCN3CCCCC3)cc2)cc1=O (as salt: hydrochloride) [Example 92, 2-Methyl-5-[4-(3-piperidin-1-yl-propoxy)-phenyl]-2H-pyridazin-3-one]
247 to 248 °C	Cn1ncc(-c2ccc(OCCCN3CCCCCC3)cc2)cc1=O (as salt: hydrochloride) [Example 93, 5-[4-(3-Azepan-1-yl-propoxy)-phenyl]-2-methyl-2H-pyridazin-3-one]
249 to 250 °C	O=c1cc(-c2ccc(OCCCN3CCCCC3)cc2)cn[nH]1 (as salt: hydrochloride) [Example 97]
98 to 100 °C	Cc1cccnc1-n1ncc(-c2ccc(OCCCN3CCC[C@H]3C)cc2)cc1=O (as salt: hydrochloride) [Example 99, 2-(3-Methyl-pyridin-2-yl)-5-{4-[3-((R)-2-methylpyrrolidin-1-yl)-propoxy]-phenyl}-2H-pyridazin-3-one]
155 to 157 °C	Cc1nn(-c2ccccn2)c(=O)cc1-c1ccc(OCCCN2CCC[C@H]2C)cc1 (as salt: hydrochloride) [Example 100, 6-Methyl-5-{4-[3-((R)-2-methyl-pyrrolidin-1-yl)-propoxy]-phenyl}-2-pyridin-2-yl-2H-pyridazin-3-one]
106 °C (dec.)	Cc1cccnc1-n1nc(C)c(-c2ccc(OCCCN3CCC[C@H]3C)cc2)cc1=O (as salt: hydrochloride) [Example 101, 6-Methyl-2-(3-methyl-pyridin-2-yl)-5-{4-[3-((R)-2-methyl-pyrrolidin-1-yl)-propoxy]-phenyl}-2H-pyridazin-3-one]
133 °C (dec.)	C[C@@H]1CCCN1CCCOc1ccc(C2=NNC(=O)CC2c2ccccn2)cc1 (stereo partly drawn) (as salt: hydrochloride) [Example 111, 6-{4-[3-((R)-2-Methyl-pyrrolidin-1-yl)-propoxy]-phenyl}-5-pyridin-2-yl-4,5-dihydro-2H-pyridazin-3-one]
234 °C (dec.)	C[C@@H]1CCCN1CCCOc1ccc(-c2n[nH]c(=O)cc2-c2ccccn2)cc1 (as salt: hydrochloride) [Example 112, 6-{4-[3-((R)-2-Methyl-pyrrolidin-1-yl)-propoxy]-phenyl}-5-pyridin-2-yl-2H-pyridazin-3-one]
232 to 234 °C	O=c1cc(-c2ccc(OC3CCN(C4CCC4)CC3)nc2)cn[nH]1 (as salt: hydrochloride) [Example 117, 5-[6-(1-Cyclobutyl-piperidin-4-yloxy)-pyridin-3-yl]-2H-pyridazin-3-one]
135 to 136 °C	C[C@@H]1CCCN1CCCOc1ccc(-c2ccc(=O)n(CCF)n2)cc1 (as salt: hydrochloride) [Example 118, 2-(2-Fluoro-ethyl)-6-{4-[3-((R)-2-methyl-pyrrolidin-1-yl)-propoxy]-phenyl}-2H-pyridazin-3-one]
135 to 140 °C	COc1cn[nH]c(=O)c1-c1ccc(OCCCN2CCC[C@H]2C)cc1 (as salt: hydrochloride) [Example 237, 5-Methoxy-4-{4-[3-((R)-2-methyl-pyrrolidin-1-yl)-propoxy]-phenyl}-2H-pyridazin-3-one]
60 to 64 °C	CC(C)n1nc(-c2ccc(OCCCN3CCC[C@H]3C)cc2)ccc1=O (as salt: tartrate) [Example 5, 2-Isopropyl-6-{4-[3-((R)-2-methyl-pyrrolidin-1-yl)-propoxy]-phenyl}-2H-pyridazin-3-one]
58 to 62 °C	CCn1nc(-c2ccc(OCCCN3CCC[C@H]3C)cc2)ccc1=O (as salt: tartrate) [Example 6, 2-Ethyl-6-{4-[3-((R)-2-methyl-pyrrolidin-1-yl)-propoxy]-phenyl}-2H-pyridazin-3-one]
169 to 171 °C	CC1CC(=O)NN=C1c1ccc(OCCCN2CCC[C@H]2C)cc1 (mixture of isomers) (as salt: HCl) [Example 194, 5-Methyl-6-{4-[3-((R)-2-methyl-pyrrolidin-1-yl)-propoxy]-phenyl}-4,5-dihydro-2H-pyridazin-3-one]
